{"source": "ChEMBL document CHEMBL5576050", "about": "“Discovery of a DCAF11-dependent cyanoacrylamide-containing covalent degrader of BET-proteins” (Bioorg Med Chem Lett, 2024)", "key": {"[1]": {"target": "T1, Bromodomain-containing protein 4 (Homo sapiens, UniProt O60885)", "assay": "Induction of nLuc-tagged BRD4S degradation in human KBM-7 cells incubated for 2 to 24 hrs by nanoluciferase based assay", "type": "cell-based", "settings": "for Activity: time 2-24 hrs"}, "[2]": {"target": "T1, Bromodomain-containing protein 4", "assay": "Induction of nLuc-tagged BRD4S degradation in human KBM-7 cells by nanoluciferase based assay", "type": "cell-based", "settings": "time 2-24 hrs, TDE = time-dependent effect"}, "[3]": {"target": "Bromodomain-containing protein 3 (Homo sapiens) (UniProt Q15059)", "sequence (Q15059 2-726 limits assumed)": "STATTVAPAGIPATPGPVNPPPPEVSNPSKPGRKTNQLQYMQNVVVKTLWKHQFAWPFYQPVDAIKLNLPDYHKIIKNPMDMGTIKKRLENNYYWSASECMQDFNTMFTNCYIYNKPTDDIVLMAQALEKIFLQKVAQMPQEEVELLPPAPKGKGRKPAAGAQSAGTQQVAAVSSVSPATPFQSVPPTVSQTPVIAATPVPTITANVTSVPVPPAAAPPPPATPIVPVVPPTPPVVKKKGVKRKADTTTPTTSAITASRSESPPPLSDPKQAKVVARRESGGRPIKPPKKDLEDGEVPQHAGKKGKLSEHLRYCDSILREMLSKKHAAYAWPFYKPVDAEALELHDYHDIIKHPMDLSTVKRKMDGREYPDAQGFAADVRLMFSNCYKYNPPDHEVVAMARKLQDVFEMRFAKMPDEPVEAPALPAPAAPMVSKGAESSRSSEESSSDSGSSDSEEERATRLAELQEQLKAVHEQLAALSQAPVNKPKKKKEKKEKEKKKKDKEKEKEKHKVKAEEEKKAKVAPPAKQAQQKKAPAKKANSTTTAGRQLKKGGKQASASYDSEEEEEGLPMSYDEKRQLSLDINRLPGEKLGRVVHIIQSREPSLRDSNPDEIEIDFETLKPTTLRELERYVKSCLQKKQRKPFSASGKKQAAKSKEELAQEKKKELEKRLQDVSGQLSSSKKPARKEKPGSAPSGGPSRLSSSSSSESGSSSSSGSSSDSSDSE", "assay": "Induction of BRD3 degradation in human KBM-7 cells at 5 uM incubated for 5 hrs by Western blotting analysis", "type": "cell-based"}, "[4]": {"target": "T1, Bromodomain-containing protein 4", "assay": "Induction of BRD4 degradation in human KBM-7 cells at 5 uM incubated for 5 hrs by Western blotting analysis", "type": "cell-based"}, "[5]": {"test_system": "KBM-7", "assay": "Downregulation of c-Myc expression in human KBM-7 cells at 5 uM after 5 hrs by Western blotting analysis", "type": "functional, cell-based"}, "[6]": {"target": "T1, Bromodomain-containing protein 4", "assay": "Induction of HA-tagged BRD4S degradation in human KBM-7 cells at 5 uM after 5 to 20 hrs by Western blotting analysis", "type": "cell-based", "settings": "time 5-20 hrs"}, "[7]": {"target": "T1, Bromodomain-containing protein 4", "assay": "Induction of HA-tagged BRD4S degradation in human KBM-7 cells at 5 uM pretreated with bortezomib for 1 hr followed by compound addition and measured after 6 hrs by Western blotting analysis", "type": "cell-based"}, "[8]": {"target": "Bromodomain-containing protein 3 (Homo sapiens) (UniProt Q15059)", "assay": "Induction of BRD3 degradation in human KBM-7 cells at 5 uM pretreated with bortezomib for 1 hr followed by compound addition and measured after 6 hrs by Western blotting analysis", "type": "cell-based"}, "[9]": {"target": "T1, Bromodomain-containing protein 4", "assay": "Induction of HA-tagged BRD4S degradation in human KBM-7 cells at 5 uM pretreated with carfilzomib for 1 hr followed by compound addition and measured after 6 hrs by Western blotting analysis", "type": "cell-based"}, "[10]": {"target": "Bromodomain-containing protein 3 (Homo sapiens) (UniProt Q15059)", "assay": "Induction of BRD3 degradation in human KBM-7 cells at 5 uM pretreated with carfilzomib for 1 hr followed by compound addition and measured after 6 hrs by Western blotting analysis", "type": "cell-based"}, "[11]": {"target": "T1, Bromodomain-containing protein 4", "assay": "Induction of HA-tagged BRD4S degradation in human KBM-7 cells at 5 uM pretreated with TAK-243 for 1 hr followed by compound addition and measured after 6 hrs by Western blotting analysis", "type": "cell-based"}, "[12]": {"target": "Bromodomain-containing protein 3 (Homo sapiens) (UniProt Q15059)", "assay": "Induction of BRD3 degradation in human KBM-7 cells at 5 uM pretreated with TAK-243 for 1 hr followed by compound addition and measured after 6 hrs by Western blotting analysis", "type": "cell-based"}, "[13]": {"target": "Bromodomain-containing protein 3 (Homo sapiens) (UniProt Q15059)", "assay": "Induction of BRD3 degradation in DCAF11 knockout human KBM-7 cells at 5 uM after 6 hrs by Western blotting analysis", "type": "cell-based"}, "[14]": {"target": "T1, Bromodomain-containing protein 4", "assay": "Induction of BRD4 degradation in DCAF11 knockout human KBM-7 cells at 5 uM after 6 hrs by Western blotting analysis", "type": "cell-based"}, "[15]": {"test_system": "KBM-7", "assay": "Downregulation of c-MYC expression in DCAF11 knockout human KBM-7 cells at 5 uM after 6 hrs by Western blotting analysis", "type": "functional, cell-based"}, "[16]": {"target": "T1, Bromodomain-containing protein 4", "assay": "Induction of BRD4S-BFP in DCAF11 knockout human K-BM7 cells transduced with sgRNA-resistant DCAF11 vector containing Cys-to-Ala mutant at 5 uM incubated for 6 hrs by flow cytometry analysis", "type": "cell-based", "settings": "KBM-7"}, "[17]": {"target": "T1, Bromodomain-containing protein 4", "assay": "Induction of BRD4S-BFP in DCAF11 knockout human K-BM7 cells transduced with sgRNA-resistant wild-type DCAF11 at 5 uM incubated for 6 hrs by flow cytometry analysis", "type": "cell-based", "settings": "KBM-7"}, "[18]": {"target": "Bromodomain-containing protein 2 (Homo sapiens) (UniProt P25440)", "sequence (P25440 whole entry, looked up)": "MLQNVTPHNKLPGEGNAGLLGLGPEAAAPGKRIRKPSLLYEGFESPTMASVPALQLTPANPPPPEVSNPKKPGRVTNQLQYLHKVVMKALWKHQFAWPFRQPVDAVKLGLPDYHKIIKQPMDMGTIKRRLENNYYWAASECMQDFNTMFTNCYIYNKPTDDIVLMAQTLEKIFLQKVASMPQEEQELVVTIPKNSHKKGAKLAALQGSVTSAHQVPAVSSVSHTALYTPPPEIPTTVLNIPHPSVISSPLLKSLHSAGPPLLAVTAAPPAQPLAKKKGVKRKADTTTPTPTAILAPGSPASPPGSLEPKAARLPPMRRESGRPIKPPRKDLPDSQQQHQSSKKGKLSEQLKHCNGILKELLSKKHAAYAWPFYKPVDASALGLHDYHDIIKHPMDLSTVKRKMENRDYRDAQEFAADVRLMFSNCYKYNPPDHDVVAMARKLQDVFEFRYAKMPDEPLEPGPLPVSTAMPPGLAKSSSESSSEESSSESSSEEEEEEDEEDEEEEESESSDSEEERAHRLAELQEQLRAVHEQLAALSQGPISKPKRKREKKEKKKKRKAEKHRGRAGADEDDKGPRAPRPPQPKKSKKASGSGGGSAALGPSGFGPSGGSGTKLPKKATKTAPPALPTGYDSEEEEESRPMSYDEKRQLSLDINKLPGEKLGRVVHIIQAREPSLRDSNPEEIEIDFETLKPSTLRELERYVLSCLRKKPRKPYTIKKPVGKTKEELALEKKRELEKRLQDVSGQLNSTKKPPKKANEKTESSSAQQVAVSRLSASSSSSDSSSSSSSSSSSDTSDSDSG", "assay": "Induction of BRD2 degradation in human KBM-7 cells at 5 uM pretreated with […] binder 11 for 1 hr followed by compound addition and measured after 5 hrs by Western blotting analysis", "type": "cell-based"}, "[19]": {"target": "Bromodomain-containing protein 2 (Homo sapiens) (UniProt P25440)", "assay": "Induction of BRD2 degradation in human KBM-7 cells at 5 uM pretreated with DCAF11 binder 12 for 1 hr followed by compound addition and measured after 5 hrs by Western blotting analysis", "type": "cell-based"}, "[20]": {"target": "Bromodomain-containing protein 3 (Homo sapiens) (UniProt Q15059)", "assay": "Induction of BRD3 degradation in human KBM-7 cells at 5 uM pretreated with […] binder 11 for 1 hr followed by compound addition and measured after 5 hrs by Western blotting analysis", "type": "cell-based"}, "[21]": {"target": "Bromodomain-containing protein 3 (Homo sapiens) (UniProt Q15059)", "assay": "Induction of BRD3 degradation in human KBM-7 cells at 5 uM pretreated with […] binder 12 for 1 hr followed by compound addition and measured after 5 hrs by Western blotting analysis", "type": "cell-based"}, "[22]": {"target": "T1, Bromodomain-containing protein 4", "assay": "Induction of BRD4 degradation in human KBM-7 cells at 5 uM pretreated with […] binder 11 for 1 hr followed by compound addition and measured after 5 hrs by Western blotting analysis", "type": "cell-based"}, "[23]": {"target": "T1, Bromodomain-containing protein 4", "assay": "Induction of BRD4 degradation in human KBM-7 cells at 5 uM pretreated with […] binder 12 for 1 hr followed by compound addition and measured after 5 hrs by Western blotting analysis", "type": "cell-based"}}, "note": "Activity calls are given as the source filed them. No cut-off for these calls is given here."}
{"compound": "Cc1sc2c(c1C)C(c1ccc(Cl)cc1)=N[C@@H](CC(=O)NCCOCCOCCNC(=O)COc1ccc(CNC(=O)/C(C#N)=C/c3ccc4ccccc4c3)cc1)c1nnc(C)n1-2", "values": [{"measurement": "DC50", "setting": "[1]", "value": 396, "unit": "nM"}, {"measurement": "Activity", "setting": "[1]", "value": "Dose-Dependent Effect"}, {"measurement": "Activity", "setting": "[2]", "value": "Tde"}]}
{"compound": "Cc1sc2c(c1C)C(c1ccc(Cl)cc1)=N[C@@H](CC(=O)NCCCCCCNC(=O)COc1ccc(CNC(=O)/C(C#N)=C/c3ccc4ccccc4c3)cc1)c1nnc(C)n1-2", "values": [{"measurement": "Activity", "setting": "[3]", "value": "Active"}, {"measurement": "Activity", "setting": "[4]", "value": "Active"}, {"measurement": "Activity", "setting": "[5]", "value": "Active"}, {"measurement": "Activity", "setting": "[6]", "value": "Active"}, {"measurement": "DC50", "setting": "[1]", "value": 305, "unit": "nM"}, {"measurement": "Activity", "setting": "[1]", "value": "Dose-Dependent Effect"}, {"measurement": "Activity", "setting": "[2]", "value": "Tde"}, {"measurement": "Activity", "setting": "[7]", "value": "inactive"}, {"measurement": "Activity", "setting": "[8]", "value": "inactive"}, {"measurement": "Activity", "setting": "[9]", "value": "inactive"}, {"measurement": "Activity", "setting": "[10]", "value": "inactive"}, {"measurement": "Activity", "setting": "[11]", "value": "inactive"}, {"measurement": "Activity", "setting": "[12]", "value": "inactive"}, {"measurement": "Activity", "setting": "[13]", "value": "inactive"}, {"measurement": "Activity", "setting": "[14]", "value": "inactive"}, {"measurement": "Activity", "setting": "[15]", "value": "Active"}, {"measurement": "Activity", "setting": "[16]", "value": "inactive"}, {"measurement": "Activity", "setting": "[17]", "value": "Active"}, {"measurement": "Activity", "setting": "[18]", "value": "inactive"}, {"measurement": "Activity", "setting": "[19]", "value": "inactive"}, {"measurement": "Activity", "setting": "[20]", "value": "inactive"}, {"measurement": "Activity", "setting": "[21]", "value": "inactive"}, {"measurement": "Activity", "setting": "[22]", "value": "inactive"}, {"measurement": "Activity", "setting": "[23]", "value": "inactive"}]}
{"compound": "Cc1sc2c(c1C)C(c1ccc(Cl)cc1)=N[C@@H](CC(=O)NCCCCCCNC(=O)COc1ccc(CNC(=O)/C=C/c3ccc4ccccc4c3)cc1)c1nnc(C)n1-2", "values": [{"measurement": "Activity", "setting": "[3]", "value": "Active"}, {"measurement": "Activity", "setting": "[4]", "value": "Active"}, {"measurement": "Activity", "setting": "[5]", "value": "inactive"}, {"measurement": "Activity", "setting": "[1]", "value": "inactive"}]}
{"compound": "Cc1sc2c(c1C)C(c1ccc(Cl)cc1)=N[C@@H](CC(=O)NCCCCCCNC(=O)COc1ccc(CNC(=O)CCc3ccc4ccccc4c3)cc1)c1nnc(C)n1-2", "values": [{"measurement": "Activity", "setting": "[3]", "value": "Active"}, {"measurement": "Activity", "setting": "[4]", "value": "Active"}, {"measurement": "Activity", "setting": "[5]", "value": "inactive"}]}
